Test results reported in ChEMBL document CHEMBL1201862, “PubChem BioAssay data set” (2004).
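Briefly, cells in 96-well plates were exposed to five compound concentrations for 48 h, and endpoints were estimated by linear interpolation. At the GI50, growth is halved.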 Active and inactive are the calls of the source. Cut-off read from the data, not from the text of the source: active = GI50 up to about 1.1 µM and inactive = higher.

What was measured:
Test in all cases: NCI-60 cell line screen, 48 h
786-0 = test system: 786-0
A498 = test system: A498
A549 = test system: A549
ACHN = test system: ACHN
BT-549 = test system: BT-549
CAKI-1 = test system: CAKI-1
CCRF-CEM = test system: CCRF-CEM
COLO 205 = test system: COLO 205
DU-145 = test system: DU-145
EKVX = test system: EKVX
HCC 2998 = test system: HCC 2998
HCT-116 = test system: HCT-116
HCT-15 = test system: HCT-15
HL-60 = test system: HL-60
HOP-92 = test system: HOP-92
HT-29 = test system: HT-29
Hs-578T = test system: Hs-578T
IGROV-1 = test system: IGROV-1
K562 = test system: K562
KM12 = test system: KM12
LOX IMVI = test system: LOX IMVI
M14 = test system: M14
MCF7 = test system: MCF7
MDA-MB-231 = test system: MDA-MB-231
MDA-MB-435 = test system: MDA-MB-435
MDA-N = test system: MDA-N
MOLT-4 = test system: MOLT-4
Malme-3M = test system: Malme-3M
NCI-H226 = test system: NCI-H226
NCI-H23 = test system: NCI-H23
NCI-H460 = test system: NCI-H460
NCI-H522 = test system: NCI-H522
NCI/ADR-RES = test system: NCI/ADR-RES
OVCAR-4 = test system: OVCAR-4
OVCAR-5 = test system: OVCAR-5
OVCAR-8 = test system: OVCAR-8
PC-3 = test system: PC-3
RPMI-8226 = test system: RPMI-8226
RXF 393 = test system: RXF 393
SF-268 = test system: SF-268
SF-539 = test system: SF-539
SK-MEL-28 = test system: SK-MEL-28
SK-MEL-2 = test system: SK-MEL-2
SK-MEL-5 = test system: SK-MEL-5
SN12C = test system: SN12C
SNB-19 = test system: SNB-19
SNB-75 = test system: SNB-75
SR = test system: SR
SW-620 = test system: SW-620
T47D = test system: T47D
TK-10 = test system: TK-10
U-251 = test system: U-251
UACC-257 = test system: UACC-257
UACC-62 = test system: UACC-62
UO-31 = test system: UO-31
HOP-62 = test system: HOP-62
SF-295 = test system: SF-295
SK-OV-3 = test system: SK-OV-3
OVCAR-3 = test system: OVCAR-3

For CCSC1=C(C#N)C2(CCCCC2)C2=C(O)CC(C)(C)CC2=N1, the GI50 (786-0) was 31.8 µM (inactive), the GI50 (A498) was 24.4 µM (inactive) and the GI50 (A549) was 34.4 µM (inactive). The GI50 (ACHN) was 24.7 µM (inactive), the GI50 (BT-549) was 14.2 µM (inactive) and the GI50 (CAKI-1) was 35.3 µM (inactive). For the same compound, the GI50 (CCRF-CEM) was > 100 µM (inactive), the GI50 (COLO 205) was > 100 µM (inactive) and the GI50 (DU-145) was 25.5 µM (inactive). For the same compound, the GI50 (EKVX) was 24.3 µM (inactive), the GI50 (HCC 2998) was 1.01 µM (active) and the GI50 (HCT-116) was > 100 µM (inactive). The GI50 (HCT-15) was 64.7 µM, the GI50 (HL-60) was > 100 µM (inactive) and the GI50 (HOP-92) was 11.4 µM (inactive). For the same compound, the GI50 (HT-29) was > 100 µM (inactive), the GI50 (Hs-578T) was 52.1 µM (inactive) and the GI50 (IGROV-1) was 26.5 µM (inactive). For the same compound, the GI50 (K562) was > 100 µM (inactive), the GI50 (KM12) was > 100 µM (inactive) and the GI50 (LOX IMVI) was > 100 µM (inactive). For the same compound, the GI50 (M14) was > 100 µM (inactive), the GI50 (MCF7) was 48.3 µM (inactive) and the GI50 (MDA-MB-231) was 45.3 µM (inactive). The GI50 (MDA-MB-435) was 42.1 µM (inactive), the GI50 (MDA-N) was > 100 µM (inactive) and the GI50 (MOLT-4) was > 100 µM (inactive). For the same compound, the GI50 (Malme-3M) was 17.3 µM (inactive), the GI50 (NCI-H226) was 53.6 µM (inactive) and the GI50 (NCI-H23) was 32.4 µM (inactive). For the same compound, the GI50 (NCI-H460) was < 0.01 µM (active), the GI50 (NCI-H522) was 39.4 µM (inactive) and the GI50 (NCI/ADR-RES) was 39.4 µM (inactive). The GI50 (OVCAR-4) was 18.8 µM (inactive), the GI50 (OVCAR-5) was > 100 µM (inactive) and the GI50 (OVCAR-8) was 36.5 µM (inactive). The GI50 (PC-3) was 28.9 µM (inactive), the GI50 (RPMI-8226) was 70.3 µM (inactive) and the GI50 (RXF 393) was 52.7 µM (inactive). The GI50 (SF-268) was 45 µM (inactive), the GI50 (SF-539) was 51.8 µM (inactive) and the GI50 (SK-MEL-28) was 56.8 µM (inactive). The GI50 (SK-MEL-2) was 54.8 µM (inactive), the GI50 (SK-MEL-5) was 40.9 µM (inactive) and the GI50 (SN12C) was 60.7 µM (inactive). The GI50 (SNB-19) was 25.2 µM (inactive), the GI50 (SNB-75) was 21.9 µM (inactive) and the GI50 (SR) was > 100 µM (inactive). For the same compound, the GI50 (SW-620) was > 100 µM (inactive), the GI50 (T47D) was 86.1 µM (inactive) and the GI50 (TK-10) was 11.1 µM (inactive). For the same compound, the GI50 (U-251) was 29.9 µM (inactive), the GI50 (UACC-257) was 5.96 µM (inactive) and the GI50 (UACC-62) was 25.6 µM (inactive). The GI50 (UO-31) was 16.6 µM (inactive).

CC1(C)COP(=S)(c2ccccn2)O[C@@H]1c1ccccc1 (some centres not stated) was tested, and the GI50 (786-0) was > 100 µM (inactive), the GI50 (A498) was > 100 µM (inactive) and the GI50 (A549) was 81.3 µM (inactive). For the same compound, the GI50 (ACHN) was > 100 µM (inactive), the GI50 (BT-549) was > 100 µM (inactive) and the GI50 (CAKI-1) was > 100 µM (inactive). For the same compound, the GI50 (CCRF-CEM) was 42.1 µM (inactive), the GI50 (COLO 205) was 38.3 µM (inactive) and the GI50 (DU-145) was > 100 µM (inactive). For the same compound, the GI50 (EKVX) was > 100 µM (inactive), the GI50 (HCC 2998) was > 100 µM (inactive) and the GI50 (HCT-116) was 42.8 µM (inactive). For the same compound, the GI50 (HCT-15) was 94.2 µM, the GI50 (HL-60) was 24.1 µM (inactive) and the GI50 (HOP-62) was > 100 µM (inactive). For the same compound, the GI50 (HOP-92) was > 100 µM (inactive), the GI50 (HT-29) was 81.8 µM (inactive) and the GI50 (Hs-578T) was > 100 µM (inactive). For the same compound, the GI50 (IGROV-1) was > 100 µM (inactive), the GI50 (K562) was 41.6 µM (inactive) and the GI50 (KM12) was > 100 µM (inactive). The GI50 (LOX IMVI) was > 100 µM (inactive), the GI50 (M14) was > 100 µM (inactive) and the GI50 (MCF7) was 98.6 µM (inactive). For the same compound, the GI50 (MDA-MB-231) was > 100 µM (inactive), the GI50 (MDA-MB-435) was > 100 µM (inactive) and the GI50 (MDA-N) was 74.6 µM (inactive). The GI50 (MOLT-4) was 30.1 µM (inactive), the GI50 (Malme-3M) was > 100 µM (inactive) and the GI50 (NCI-H226) was 37.9 µM (inactive). For the same compound, the GI50 (NCI-H23) was 69.5 µM (inactive), the GI50 (NCI-H460) was > 100 µM (inactive) and the GI50 (NCI-H522) was 56.6 µM (inactive). For the same compound, the GI50 (NCI/ADR-RES) was 66.1 µM (inactive), the GI50 (OVCAR-4) was 70 µM (inactive) and the GI50 (OVCAR-5) was > 100 µM (inactive). The GI50 (OVCAR-8) was > 100 µM (inactive), the GI50 (PC-3) was 88.7 µM (inactive) and the GI50 (RXF 393) was 62.2 µM (inactive). For the same compound, the GI50 (SF-268) was > 100 µM (inactive), the GI50 (SF-295) was 55.2 µM (inactive) and the GI50 (SK-MEL-28) was > 100 µM (inactive). For the same compound, the GI50 (SK-MEL-5) was 26.9 µM (inactive), the GI50 (SK-OV-3) was > 100 µM (inactive) and the GI50 (SN12C) was > 100 µM (inactive). The GI50 (SNB-19) was > 100 µM (inactive), the GI50 (SNB-75) was 6.19 µM (inactive) and the GI50 (SR) was 30 µM (inactive). The GI50 (SW-620) was > 100 µM (inactive), the GI50 (T47D) was 22.3 µM (inactive) and the GI50 (TK-10) was > 100 µM (inactive). For the same compound, the GI50 (U-251) was > 100 µM (inactive), the GI50 (UACC-257) was > 100 µM (inactive) and the GI50 (UACC-62) was > 100 µM (inactive). For the same compound, the GI50 (UO-31) was 50.8 µM (inactive).

CC(=O)Nc1cc2cc(NS(=O)(=O)c3cc(C(F)(F)F)cc(C(F)(F)F)c3)ccc2oc1=O was tested, and the GI50 (786-0) was 72.3 µM (inactive), the GI50 (A498) was > 100 µM (inactive) and the GI50 (A549) was > 100 µM (inactive). For the same compound, the GI50 (ACHN) was > 100 µM (inactive), the GI50 (BT-549) was > 100 µM (inactive) and the GI50 (CAKI-1) was > 100 µM (inactive). The GI50 (CCRF-CEM) was > 100 µM (inactive), the GI50 (COLO 205) was > 100 µM (inactive) and the GI50 (DU-145) was > 100 µM (inactive). For the same compound, the GI50 (EKVX) was > 100 µM (inactive), the GI50 (HCC 2998) was > 100 µM (inactive) and the GI50 (HCT-116) was > 100 µM (inactive). The GI50 (HCT-15) was over 100 µM, the GI50 (HL-60) was > 100 µM (inactive) and the GI50 (HOP-62) was > 100 µM (inactive). The GI50 (HOP-92) was > 100 µM (inactive), the GI50 (HT-29) was > 100 µM (inactive) and the GI50 (Hs-578T) was > 100 µM (inactive). For the same compound, the GI50 (IGROV-1) was > 100 µM (inactive), the GI50 (K562) was > 100 µM (inactive) and the GI50 (KM12) was > 100 µM (inactive). The GI50 (LOX IMVI) was 98.6 µM (inactive), the GI50 (M14) was > 100 µM (inactive) and the GI50 (MCF7) was > 100 µM (inactive). For the same compound, the GI50 (MDA-MB-231) was > 100 µM (inactive), the GI50 (MDA-MB-435) was > 100 µM (inactive) and the GI50 (MDA-N) was > 100 µM (inactive). The GI50 (MOLT-4) was > 100 µM (inactive), the GI50 (Malme-3M) was > 100 µM (inactive) and the GI50 (NCI-H226) was > 100 µM (inactive). The GI50 (NCI-H23) was > 100 µM (inactive), the GI50 (NCI-H460) was > 100 µM (inactive) and the GI50 (NCI-H522) was > 100 µM (inactive). For the same compound, the GI50 (NCI/ADR-RES) was > 100 µM (inactive), the GI50 (OVCAR-3) was 52.1 µM (inactive) and the GI50 (OVCAR-4) was > 100 µM (inactive). For the same compound, the GI50 (OVCAR-5) was > 100 µM (inactive), the GI50 (OVCAR-8) was 34.3 µM (inactive) and the GI50 (PC-3) was > 100 µM (inactive). For the same compound, the GI50 (RPMI-8226) was > 100 µM (inactive), the GI50 (RXF 393) was 0.016 µM (active) and the GI50 (SF-268) was 32.6 µM (inactive). The GI50 (SF-295) was > 100 µM (inactive), the GI50 (SF-539) was 29.4 µM (inactive) and the GI50 (SK-MEL-28) was > 100 µM (inactive). The GI50 (SK-MEL-2) was > 100 µM (inactive), the GI50 (SK-MEL-5) was > 100 µM (inactive) and the GI50 (SN12C) was > 100 µM (inactive). For the same compound, the GI50 (SNB-19) was 47.2 µM (inactive), the GI50 (SR) was > 100 µM (inactive) and the GI50 (SW-620) was > 100 µM (inactive). The GI50 (T47D) was > 100 µM (inactive), the GI50 (TK-10) was > 100 µM (inactive) and the GI50 (U-251) was 28.7 µM (inactive). For the same compound, the GI50 (UACC-257) was > 100 µM (inactive), the GI50 (UACC-62) was > 100 µM (inactive) and the GI50 (UO-31) was > 100 µM (inactive).
